Laboratory results reported in PubChem BioAssay (NCI).
Where “and” joins values, the source holds several entries; their conditions need not be identical. Identical values can stand only once.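 Assay format: 96-well plates, 48-hour exposure. Abbreviation: GI50, concentration required for 50% inhibition of growth. TGI is the concentration that stops growth completely.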

Key:
Assay in all cases: inhibition of tumour cell growth, NCI panel, 48 h
ACHN renal = test system: ACHN renal
SK-OV-3 ovarian = test system: SK-OV-3 ovarian
T-47D breast = test system: T-47D breast
COLO 205 colon = test system: COLO 205 colon
HS 578T breast = test system: HS 578T breast
OVCAR-5 ovarian = test system: OVCAR-5 ovarian
SK-MEL-2 melanoma = test system: SK-MEL-2 melanoma
BT-549 breast = test system: BT-549 breast
OVCAR-3 ovarian = test system: OVCAR-3 ovarian
MOLT-4 leukemia = test system: MOLT-4 leukemia

Row | SMILES | TGI (ACHN renal) | TGI (SK-OV-3 ovarian) | TGI (T-47D breast) | TGI (COLO 205 colon) | TGI (HS 578T breast) | TGI (OVCAR-5 ovarian) | TGI (SK-MEL-2 melanoma) | TGI (BT-549 breast) | TGI (OVCAR-3 ovarian) | TGI (MOLT-4 leukemia) | GI50 (SK-OV-3 ovarian) | GI50 (COLO 205 colon) | GI50 (HS 578T breast) | GI50 (OVCAR-5 ovarian) | GI50 (MOLT-4 leukemia) | GI50 (SK-MEL-2 melanoma) | GI50 (BT-549 breast)
1 | c1ccc(-c2nnn(CCN3CCCCC3)n2)cc1 | > 100 µM | > 100 µM | > 100 µM | > 100 µM | > 100 µM | > 100 µM | > 100 µM | > 100 µM | > 100 µM |  |  |  |  |  |  |  | 
2 | CC1(C2CCC3(C)OC3C2)CO1 (stereo not given) | > 100 µM | > 100 µM |  | > 100 µM |  | > 100 µM | > 100 µM |  | > 100 µM | > 100 µM |  |  |  |  |  |  | 
3 | O=C1C=CC(=O)c2c(O)c(N3CCN(CCOCCO)CC3)c(Cl)c(O)c21 |  | 13.5 µM and 7.9 µM and 19.9 µM |  |  |  | 3.32 µM [middle of 4 runs] | 4.51 µM and 1.11 µM | 2.11 µM and 1.49 µM and 3.91 µM | 2.14 µM [middle of 4 runs] | 0.837 µM and 0.175 µM | 4.59 µM [middle of 4 runs] | 156 nM [middle of 4 runs] | 0.218 µM | 1.26 µM | 0.097 µM and 0.0331 µM | 2.3 µM | 0.722 µM and 0.422 µM and 2.27 µM
4 | C=CC1CN2CCC1CC2C(O)c1ccnc2ccccc12 (stereo not given) | > 100 µM | > 100 µM | > 100 µM | > 100 µM |  | > 100 µM | > 100 µM | > 100 µM | > 100 µM | > 100 µM |  |  |  |  |  |  | 
5 | Cc1nc(-c2cc3cc(Cl)ccc3oc2=O)cc2c1c(=O)oc1ccc(Cl)cc12 | > 100 µM | > 100 µM | > 100 µM | > 100 µM | > 100 µM |  | > 100 µM | > 100 µM | > 100 µM | > 100 µM |  |  |  |  |  |  | 
6 | CC1CC/C(=C\c2ccc(Cl)cc2)c2nc(N)c(C#N)c(-c3ccc(Cl)cc3)c21 (stereo not given) | > 100 µM | > 100 µM | > 100 µM | > 100 µM |  | > 100 µM | > 100 µM | > 100 µM | > 100 µM | > 100 µM |  |  |  |  |  |  | 
7 | COc1c(C)c(C/C=C(\C)CC/C=C(\C)CCC=C(C)C)c(OC)c(OC)c1OC | > 100 µM | > 100 µM |  | > 100 µM | > 100 µM | > 100 µM | > 100 µM | > 100 µM | > 100 µM | > 100 µM |  |  |  |  |  |  | 
8 | NC(=O)CO/N=C1/C(c2c(O)[nH]c3ccccc23)=Nc2ccccc21 | > 100 µM | > 100 µM |  | > 100 µM | > 100 µM | > 100 µM | > 100 µM | > 100 µM | > 100 µM | > 100 µM |  |  |  |  |  |  | 
9 | C#CCC1(C(=O)OCC)C(=O)c2ccccc2N(C)C1=O (stereo not given) | > 100 µM | > 100 µM |  | > 100 µM |  |  | > 100 µM |  | > 100 µM | > 100 µM |  |  |  |  |  |  | 
10 | CC(=O)/C(=C\c1ccc(Cl)c(Cl)c1)C(=O)C(C)CN(C)C (stereo not given) | 17.9 µM | 37.1 µM | 12.3 µM | 24.4 µM |  | 23.8 µM |  | 8.92 µM | 16.1 µM | 6.6 µM |  |  |  |  |  |  | 
11 | CC(C)OC1OC(CO)C(O)CC1n1cc(F)c(=O)[nH]c1=O (stereo not given) | > 100 µM |  | > 100 µM | > 100 µM | > 100 µM | > 100 µM | > 100 µM | > 100 µM | > 100 µM |  |  |  |  |  |  |  | 
12 | CC(=O)Nc1cc(Nc2cc(=O)[nH]c(=O)[nH]2)ccc1C | > 100 µM |  |  | > 100 µM | > 100 µM | > 100 µM |  | > 100 µM | > 100 µM |  |  |  |  |  |  |  | 
13 | CSc1nc(NC(C)C)c2c(n1)Sc1nc3ccccc3n1C2O (stereo not given) | 81.8 µM | > 100 µM | 22.4 µM | 14.3 µM | 13.4 µM |  | 52 µM | > 100 µM | 5.88 µM | 14.1 µM |  |  |  |  |  |  | 
14 | CCN(CC)c1nc(N(C)C)c2ccccc2n1 | > 100 µM | > 100 µM | > 100 µM | 83.3 µM | > 100 µM | > 100 µM | > 100 µM | > 100 µM |  | 30.3 µM |  |  |  |  |  |  | 
15 | CCOP(=O)(OCC)/C(C#N)=C/c1cccn1Cc1ccccc1 | > 100 µM | > 100 µM | 74 µM | 44.5 µM |  | > 100 µM | 47.8 µM | 74.7 µM | > 100 µM | 75.5 µM |  |  |  |  |  |  | 
16 | COC(=O)C1=C(O)C(C(=O)OC)[C@]2(O)[C@H](C(=O)OC)[C@H]1C[C@@H](c1ccc([N+](=O)[O-])cc1)[C@H]2C(=O)OC (stereo not given in full) | 32.9 µM | > 100 µM | > 100 µM | 65.2 µM |  | 65.9 µM | 46.6 µM | 39.7 µM | > 100 µM | 81.6 µM |  |  |  |  |  |  | 
17 | Nc1ncnc2c1ncn2Cc1cccc(CCl)c1 | 37.2 µM |  |  |  | > 100 µM | 32.1 µM | 31.9 µM | 25.8 µM | 32.3 µM | > 100 µM |  |  |  |  |  |  | 
